Experimental data as given in patent publication US20210227868A1, “Formula with specific beta-lactoglobulin peptides” (N.V. Nutricia, priority 2018, published 2021).

Key:
Assay in all cases: T-cell proliferation assay (stimulation index)
Type in all cases: cell-based, human
TCL C = conditions: SI>=2 positive
Method: (§1) Synthetic peptides were obtained from JPT technologies. Only peptides containing at least 9 AAs were taken into account, as this is the minimal size for binding to MHC class II molecules and subsequent T-cell recognition (Holland et al, Front Immunol 2013 Jul 1; 4:172.) Synthetic peptides (JPT technologies) identical to the peptides identified in all batches of the HP of example 1 were dissolved in dimethylsulfoxide (Sigma Aldrich) at a concentration of 5.3 mM. The peptides were tested on cow's milk-specific T-cell lines (TCLs) from three different donors. The peptides were tested on cow's milk protein-specific T-cell lines (TCLs) from three infant donors, diagnosed with cow's milk protein allergy. […] Proliferation was determined as described previously (Ruiter et al, Clin Exp Allergy 2006, 36(3):303-310). Stimulation indexes (Sls, ratio between proliferation of allergen/peptide-stimulated and non-stimulated T cells) were calculated and a SI≥2 was considered positive.
(§2) To confirm that the peptides identified in HP were recognized by T cells, synthetic peptides identical to these identified peptides were tested on cow's milk-specific human TCLs. As there was a considered overlap between the identified peptides, five peptides were tested (Table 7) that were identified in all batches and differed with more than 9A from each other. All tested peptides were able to induce proliferation (FIG. 2). […] This was also seen with the in silico prediction data (data not shown). […] As peptide LIV . . . […] SLL (AA #1-32) did, the region containing AA #28-32 (DISLL) was essential for the response of TCL A. Unexpectedly, TCL C recognized peptide LIV . . . AAS (AA #1-27), while the longer peptide containing the same sequence with 5 additional AAs, LIV . . .

TCL A = conditions: SI>=2 positive
Method: as §1, §2

[1] = test system: cow's milk-specific T-cell lines (TCLs); conditions: TCLs of three cow's milk allergic donors; SI>=2 positive
Method: as §1, §2

Sequence	T-cell proliferation (TCL C)	T-cell proliferation (TCL A)	T-cell proliferation / reactivity [1]
LIVTQTMKGLDIQKVAGTWYSLAMAASDISLL (beta-lactoglobulin peptide fragment) [SEQ ID NO: 11]	not able to induce a proliferative response	did	–
TMKGLDIQKVAGTWYSLAMAASDISLLDAQ (beta-lactoglobulin peptide fragment) [SEQ ID NO: 4]	–	–	reactivity of every cell line was covered
LIVTQTMKGLDIQKVAGTWYSLAMAAS (beta-lactoglobulin peptide fragment) [SEQ ID NO: 9]	recognized	not able to induce proliferation	–
